According to the supplement of paper PMC10627819:

How the values were obtained:
[1] = test system: S. aureus DSM 20231; experiment: fitness (endpoint OD595 vs no drug) (fraction); higher = more growth
Summary of the method: (§1)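 With the first reading as background, OD595 was measured every 30 min for 14 h in 384-well plates kept at 37 °C and inoculated at OD595 0.01. TSB, LB Lennox or CY was the medium. Fitness is the optical density at the transition into stationary phase divided by the robust mean of no-drug control wells, with a cap of 1.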

[2] = test system: S. pneumoniae D39V; experiment: as above
Summary of the method: as §1

[3] = test system: B. subtilis 168; experiment: Bliss interaction score (quartile over a dose matrix) (fitness difference); higher = more antagonism (negative = synergy)
Summary of the method: (§2)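 Quartiles of the Bliss score were taken over technical, biological and donor/recipient replicates. That score is observed fitness minus the product of the single-drug fitness values, which were inferred from combination data. Fitness itself is OD595 at entry into stationary phase divided by the plate's robust no-drug mean, with a cap at 1.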

[4] = test system: S. aureus DSM 20231; experiment: as above
Summary of the method: as §2

[5] = test system: S. aureus Newman; experiment: as above
Summary of the method: as §2

[6] = test system: S. pneumoniae D39V; experiment: as above
Summary of the method: as §2

[7] = test system: B. subtilis 168; experiment: fitness (endpoint OD595 vs no drug) (fraction); higher = more growth
Summary of the method: as §1
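For Bliss interaction score (quartile over a dose matrix) in this document: first quartile when negative (synergy) and third quartile when positive (antagonism).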

CO/N=C(\C(=O)N[C@@H]1C(=O)N2C(C(=O)[O-])=C(C[N+]3(C)CCCC3)CS[C@H]12)c1csc(N)n1 [Cefepime] + CCC[C@@H]1C[C@@H](C(=O)N[C@@H]([C@H]2O[C@H](SC)[C@H](O)[C@@H](O)[C@H]2O)[C@@H](C)O)N(C)C1 [Lincomycin]
Settings	fitness
[1], first compound 0.125 µg/mL, partner 0.1 µg/mL	0.877
[1], first compound 0.125 µg/mL, partner 0.2 µg/mL	0.876
[1], first compound 0.25 µg/mL, partner 0.1 µg/mL	0.939
[1], first compound 0.25 µg/mL, partner 0.2 µg/mL	0.908
[1], first compound 0.5 µg/mL, partner 0.1 µg/mL	0.906
[1], first compound 0.5 µg/mL, partner 0.2 µg/mL	0.835
[2], first compound 0.007 µg/mL, partner 0.2 µg/mL	0.734
[2], first compound 0.007 µg/mL, partner 0.4 µg/mL	0.521
[2], first compound 0.007 µg/mL, partner 0.8 µg/mL	0.198
[2], first compound 0.0078 µg/mL, partner 0.215 µg/mL	0.909
[2], first compound 0.0078 µg/mL, partner 0.43 µg/mL	0.823
[2], first compound 0.0078 µg/mL, partner 0.86 µg/mL	0.593
[2], first compound 0.014 µg/mL, partner 0.2 µg/mL	0.729
[2], first compound 0.014 µg/mL, partner 0.4 µg/mL	0.523
[2], first compound 0.014 µg/mL, partner 0.8 µg/mL	0.185
[2], first compound 0.0155 µg/mL, partner 0.215 µg/mL	0.878
[2], first compound 0.0155 µg/mL, partner 0.43 µg/mL	0.821
[2], first compound 0.0155 µg/mL, partner 0.86 µg/mL	0.514
[2], first compound 0.028 µg/mL, partner 0.2 µg/mL	0.674
[2], first compound 0.028 µg/mL, partner 0.4 µg/mL	0.458
[2], first compound 0.028 µg/mL, partner 0.8 µg/mL	0.133
[2], first compound 0.031 µg/mL, partner 0.215 µg/mL	0.82
[2], first compound 0.031 µg/mL, partner 0.43 µg/mL	0.723
[2], first compound 0.031 µg/mL, partner 0.86 µg/mL	0.323

Settings	Bliss interaction score
[3]	-0.0344
[4]	0.188
[5]	0.0822
[6]	0.2

CC1(C)S[C@@H]2[C@H](NC(=O)[C@H](N)c3ccc(O)cc3)C(=O)N2[C@H]1C(=O)O [Amoxicillin] + CCC[C@@H]1C[C@@H](C(=O)N[C@@H]([C@H]2O[C@H](SC)[C@H](O)[C@@H](O)[C@H]2O)[C@@H](C)O)N(C)C1 [Lincomycin]
fitness
Settings	partner 0.1 µg/mL	partner 0.2 µg/mL	partner 0.215 µg/mL	partner 0.4 µg/mL	partner 0.43 µg/mL	partner 0.8 µg/mL	partner 0.86 µg/mL
[1], first compound 0.0625 µg/mL	0.624	0.492	–	0.213	–	–	–
[1], first compound 0.125 µg/mL	–	0.358	–	0.129	–	–	–
[1], first compound 0.25 µg/mL	0.0334	0.0486	–	0.064	–	–	–
[1], first compound 0.5 µg/mL	0.0005	0.0261	–	0.0105	–	–	–
[2], first compound 0.0008 µg/mL	–	–	0.838	–	0.739	–	0.409
[2], first compound 0.0015 µg/mL	–	0.847	0.878	0.54	0.744	0.312	0.437
[2], first compound 0.003 µg/mL	–	0.816	0.852	0.554	0.744	0.337	0.477

fitness, [2], one replicate
Settings	partner 0.2 µg/mL	partner 0.4 µg/mL	partner 0.8 µg/mL
first compound 0.0008 µg/mL	0.878	0.489	0.393
first compound 0.006 µg/mL	0.484	0.216	0.143

Settings	Bliss interaction score
[3]	-0.0381
[4]	-0.0436
[5]	0.117
[6]	0.227

CO/N=C(\C(=O)N[C@@H]1C(=O)N2C(C(=O)[O-])=C(C[N+]3(C)CCCC3)CS[C@H]12)c1csc(N)n1 [Cefepime] + CC(=O)NC[C@H]1CN(c2ccc(N3CCOCC3)c(F)c2)C(=O)O1 [Linezolid]
Settings	fitness
[1], first compound 0.125 µg/mL, partner 0.125 µg/mL	0.843
[1], first compound 0.125 µg/mL, partner 0.25 µg/mL	0.625
[1], first compound 0.125 µg/mL, partner 0.5 µg/mL	0.287
[1], first compound 0.25 µg/mL, partner 0.125 µg/mL	0.956
[1], first compound 0.25 µg/mL, partner 0.25 µg/mL	0.655
[1], first compound 0.25 µg/mL, partner 0.5 µg/mL	0.375
[1], first compound 0.5 µg/mL, partner 0.125 µg/mL	0.903
[1], first compound 0.5 µg/mL, partner 0.25 µg/mL	0.669
[1], first compound 0.5 µg/mL, partner 0.5 µg/mL	0.322
[2], first compound 0.007 µg/mL, partner 0.2 µg/mL	0.827
[2], first compound 0.007 µg/mL, partner 0.4 µg/mL	0.567
[2], first compound 0.007 µg/mL, partner 0.8 µg/mL	0.253
[2], first compound 0.0078 µg/mL, partner 0.105 µg/mL	0.934
[2], first compound 0.0078 µg/mL, partner 0.21 µg/mL	0.825
[2], first compound 0.0078 µg/mL, partner 0.42 µg/mL	0.692
[2], first compound 0.014 µg/mL, partner 0.2 µg/mL	0.797
[2], first compound 0.014 µg/mL, partner 0.4 µg/mL	0.573
[2], first compound 0.014 µg/mL, partner 0.8 µg/mL	0.259
[2], first compound 0.0155 µg/mL, partner 0.105 µg/mL	0.912
[2], first compound 0.0155 µg/mL, partner 0.21 µg/mL	0.796
[2], first compound 0.0155 µg/mL, partner 0.42 µg/mL	0.608
[2], first compound 0.028 µg/mL, partner 0.2 µg/mL	0.751
[2], first compound 0.028 µg/mL, partner 0.4 µg/mL	0.512
[2], first compound 0.028 µg/mL, partner 0.8 µg/mL	0.244
[2], first compound 0.031 µg/mL, partner 0.105 µg/mL	0.645
[2], first compound 0.031 µg/mL, partner 0.21 µg/mL	0.504
[2], first compound 0.031 µg/mL, partner 0.42 µg/mL	0.258

[1], partner 1 µg/mL, one replicate
Settings	fitness
first compound 0.125 µg/mL	0.0467
first compound 0.25 µg/mL	0.0593
first compound 0.5 µg/mL	0.052

Settings	Bliss interaction score
[3]	0.0847
[4]	0.11
[5]	0.0424
[6]	0.165

CC1(C)S[C@@H]2[C@H](NC(=O)[C@H](N)c3ccc(O)cc3)C(=O)N2[C@H]1C(=O)O [Amoxicillin] + COc1cc(Cc2cnc(N)nc2N)cc(OC)c1OC [Trimethoprim]
fitness, [1]
Settings	partner 0.125 µg/mL	partner 0.25 µg/mL	partner 0.5 µg/mL	partner 1 µg/mL
first compound 0.0625 µg/mL	0.511	0.401	0.0356	0.0213
first compound 0.125 µg/mL	0.189	0.11	0.0261	0.0335
first compound 0.25 µg/mL	0.0479	0.037	0.033	0.0125

[1], first compound 0.5 µg/mL, one replicate
Settings	fitness
partner 0.125 µg/mL	0.0327
partner 0.25 µg/mL	0.0355
partner 0.5 µg/mL	0.0427

Settings	Bliss interaction score
[3]	-0.139
[4]	-0.0714
[5]	0.0661
[6]	0.174

CN(C)C(=O)C(CCN1CCC(O)(c2ccc(Cl)cc2)CC1)(c1ccccc1)c1ccccc1 [Loperamide] + CN1C2=CC=CC=C2N=C3C1=CC=CC3=O [Pyocyanin]
Settings	fitness
[2], first compound 17.14 µg/mL, partner 0.325 µg/mL	≥ 1
[2], first compound 17.14 µg/mL, partner 0.65 µg/mL	0.984
[2], first compound 17.14 µg/mL, partner 1.3 µg/mL	0.797
[2], first compound 34.28 µg/mL, partner 0.325 µg/mL	0.993
[2], first compound 34.28 µg/mL, partner 0.65 µg/mL	0.945
[2], first compound 34.28 µg/mL, partner 1.3 µg/mL	0.729
[7], first compound 25 µg/mL, partner 1.25 µg/mL	0.819
[7], first compound 25 µg/mL, partner 2.5 µg/mL	0.78
[7], first compound 25 µg/mL, partner 5 µg/mL	0.632
[7], first compound 50 µg/mL, partner 5 µg/mL	0.215
[7], first compound 100 µg/mL, partner 1.25 µg/mL	0.062
[7], first compound 100 µg/mL, partner 2.5 µg/mL	0.0311
[7], first compound 100 µg/mL, partner 5 µg/mL	0.0308

fitness, [2], one replicate
Settings	first compound 20 µg/mL	first compound 40 µg/mL	first compound 68.57 µg/mL	first compound 80 µg/mL
partner 0.325 µg/mL	≥ 1	≥ 1	≥ 1	≥ 1
partner 0.65 µg/mL	≥ 1	≥ 1	0.964	0.995
partner 1.3 µg/mL	–	–	0.748	–

Settings	Bliss interaction score
[3]	0.103
[4]	-0.0519
[5]	-0.0463
[6]	0.0757

C[C@H]1COc2c(N3CCN(C)CC3)c(F)cc3c(=O)c(C(=O)O)cn1c23 [Levofloxacin] + C[n+]1ccc(-c2cc[n+](C)cc2)cc1 [Paraquat]
fitness, one replicate
Settings	first compound 0.001 µg/mL	first compound 0.002 µg/mL	first compound 0.0039 µg/mL	first compound 0.2 µg/mL	first compound 0.4 µg/mL	first compound 0.8 µg/mL
[2], partner 1.5 µg/mL	–	–	–	0.966	0.911	0.615
[2], partner 3 µg/mL	–	–	–	0.983	0.939	0.684
[2], partner 6 µg/mL	–	–	–	0.994	0.952	0.696
[7], partner 1.25 µg/mL	0.91	0.941	0.829	–	–	–
[7], partner 2.5 µg/mL	0.966	0.876	0.823	–	–	–
[7], partner 5 µg/mL	0.889	0.778	0.766	–	–	–

fitness
Settings	first compound 0.0312 µg/mL	first compound 0.0625 µg/mL	first compound 0.125 µg/mL	first compound 0.1725 µg/mL	first compound 0.345 µg/mL	first compound 0.69 µg/mL
[2], partner 1.5 µg/mL	–	–	–	0.977	0.91	0.602
[2], partner 3 µg/mL	–	–	–	0.974	0.919	0.647
[2], partner 6 µg/mL	–	–	–	0.972	0.849	0.569
[7], partner 1.25 µg/mL	0.0392	0.0443	0.0452	–	–	–
[7], partner 2.5 µg/mL	0.0272	0.0296	0.0268	–	–	–
[7], partner 5 µg/mL	0.0508	0.0462	0.0464	–	–	–

Settings	Bliss interaction score
[3]	-0.0255
[4]	-0.0517
[5]	-0.0586
[6]	0.0861
